In patent US4666902A, “Tetrahydropyridazinone derivatives, processes for their preparation and their use” (Cassella Aktiengesellschaft, priority 1983, dated 1987):
pIC50: −log10 of the molar value.

What follows are compounds tested on experimental thrombosis, venous (assay: Venous thrombotic protection, experimental thrombosis in vivo (Harbauer)). Conditions: 0.3 mg/kg i.p.
Experimental: (§1) The values of the arterial thrombotic protection given in table 1 were determined in rats according to the method of Meng and Seuter (Naunyn-Schmiedeberg's Arch. Pharmacol. 301, 115 (1977)), those of the venous thrombotic protection were determined in rabbits according to the Harbauer method ("Versuche zur Entwicklung eines standardisierten venosen Thrombosemodells am Kaninchen" ("Tests for developing a standardized venous thrombotic model in rabbits"), 17th Angiologic Symposium, Kitzbuhel (1982)).
(§2) Influence on the experimental thrombosis in vivo

| Structure (SMILES) | Thrombotic Protection % venous (rabbit) |
| --- | --- |
| CC(=O)Nc1ccc(C2=NNC(=O)CC2CO)cc1 (centres unmarked) [drawing 46] | 60% |

Same assay, conditions: 1 mg/kg i.p.

| Structure (SMILES) | Thrombotic Protection % venous (rabbit) |
| --- | --- |
| CC(=O)Nc1ccc(C2=NNC(=O)CC2CO)cc1 (centres unmarked) [drawing 46] | 78% |

Same assay, conditions: 3 mg/kg i.p.

| Structure (SMILES) | Thrombotic Protection % venous (rabbit) |
| --- | --- |
| O=C1CC(CO)C(c2ccc(OCCn3ccnc3)cc2)=NN1 (centres unmarked) [drawing 47] | 57% |

Same assay, conditions: 10 mg/kg i.p.

| Structure (SMILES) | Thrombotic Protection % venous (rabbit) |
| --- | --- |
| O=C1CC(CO)C(c2ccc(Cl)cc2)=NN1 (centres unmarked) [drawing 44] | 57% |
| Cc1nnc(COc2ccc(C3=NNC(=O)CC3CO)cc2)o1 (centres unmarked) [drawing 45] | 50% |
| O=C1CC(CO)C(c2ccc(OCCn3ccnc3)cc2)=NN1 (centres unmarked) [drawing 47] | 86% |
| O=C1CC(CO)C(c2ccc(N3CCCC3=O)cc2)=NN1 (centres unmarked) [drawing 48] | 83% |

Each compound was assayed on experimental thrombosis, arterial (assay: Arterial thrombotic protection, experimental thrombosis in vivo (Meng and Seuter)). Conditions: 0.3 mg/kg i.p.
Experimental: as §1, §2

| Structure (SMILES) | Thrombotic Protection % arterial (rat) |
| --- | --- |
| CC(=O)Nc1ccc(C2=NNC(=O)CC2CO)cc1 (centres unmarked) [drawing 46] | 30% |

Same assay, conditions: 1 mg/kg i.p.

| Structure (SMILES) | Thrombotic Protection % arterial (rat) |
| --- | --- |
| CC(=O)Nc1ccc(C2=NNC(=O)CC2CO)cc1 (centres unmarked) [drawing 46] | 80% |
| O=C1CC(CO)C(c2ccc[nH]2)=NN1 (centres unmarked) [drawing 50] | 42% |

What follows are compounds tested on action of arachidonic acid (assay: Influence on the action of arachidonic acid in vivo under anesthesia (Lefort and Vargaftig)). Conditions: 0.1-1 mg/kg i.v.
Parameters: species or system guinea pig; key: -: no action; (+): weak; +: medium; ++: strong; +++: very strong
Experimental: The values of Table 2 showing the influence on the action of arachidonic acid were determined in guinea pigs under anesthesia using the Lefort and Vargaftig method (Br. J. Pharmac. 63, 35 (1978)).
Influence on the action of arachidonic acid (arachidonic acid
500 g/kg i.v.) in vivo in guinea pigs under anesthesia

| Structure (SMILES) | PGI2 Effect: Lowering of blood pressure | TXA2 Effect: Bronchospasm | TXA2 Effect: Thrombocytopenia |
| --- | --- | --- | --- |
| CC(=O)Nc1ccc(C2=NNC(=O)CC2CO)cc1 (centres unmarked) [drawing 65] | ++ | ++ | ++ |

Same assay, conditions: 0.3-3 mg/kg i.v.

| Structure (SMILES) | PGI2 Effect: Lowering of blood pressure | TXA2 Effect: Bronchospasm | TXA2 Effect: Thrombocytopenia |
| --- | --- | --- | --- |
| O=C1CC(CO)C(c2ccc(N3CCCC3=O)cc2)=NN1 (centres unmarked) [drawing 62] | + | + | ++ |
| COc1ccc(C2=NNC(=O)CC2CO)cc1OC (centres unmarked) [drawing 69] | +++ | ++ | ++ |

Same assay, conditions: 1-10 mg/kg i.v.

| Structure (SMILES) | PGI2 Effect: Lowering of blood pressure | TXA2 Effect: Bronchospasm | TXA2 Effect: Thrombocytopenia |
| --- | --- | --- | --- |
| Cc1cc(COc2ccc(C3=NNC(=O)CC3CO)cc2)[nH]c(=O)c1 (centres unmarked) | - | (+) | (+) |
| O=C1CC(CO)C(c2ccco2)=NN1 (centres unmarked) | - | (+) | (+) |
| O=C1CC(CO)C(c2ccccc2)=NN1 (centres unmarked) [drawing 53] | (+) | (+) | - |
| Cc1ccc(C2=NNC(=O)CC2CO)cc1 (centres unmarked) [drawing 54] | (+) | (+) | (+) |
| COc1ccc(C2=NNC(=O)CC2CO)cc1 (centres unmarked) [drawing 55] | ++ | (+) | - |
| O=C1CC(CO)C(c2ccc(Cl)cc2)=NN1 (centres unmarked) [drawing 56] | (+) | (+) | (+) |
| O=C1CC(CO)C(c2cccc([N+](=O)[O-])c2)=NN1 (centres unmarked) [drawing 57] | (+ ) | ++ | + |
| Cc1nnc(COc2ccc(C3=NNC(=O)CC3CO)cc2)o1 (centres unmarked) [drawing 58] | + | ++ | ++ |
| COc1ccc(C2=NNC(=O)CC2COC(=O)c2cccnc2)cc1OC (centres unmarked) [drawing 59] | - | (+) | (+) |
| CC(=O)Nc1ccc(C2=NN(C)C(=O)CC2CO)cc1 (centres unmarked) [drawing 61] | (+) | (+) | (+) |
| O=C1CC(CO)C(c2ccc[nH]2)=NN1 (centres unmarked) [drawing 63] | (+) | ++ | +++ |
| O=C1CC(CO)C(c2ccc(OCCn3ccnc3)cc2)=NN1 (centres unmarked) [drawing 66] | (+) | + | ++ |
| O=C1CC(CO)C(c2c[nH]c3ccccc23)=NN1 (centres unmarked) [drawing 70] | (+) | + | +++ |
| COc1ccc(C2=NNC(=O)CC2COC(=O)COc2ccc(Cl)cc2)cc1OC (centres unmarked) [drawing 71] | + | (+) | - |
| O=C1CC(CO)C(c2ccc(OCc3cccnc3)cc2)=NN1 (centres unmarked) [drawing 73] | - | + | + |

Same assay, conditions: 3-10 mg/kg i.v.

| Structure (SMILES) | PGI2 Effect: Lowering of blood pressure | TXA2 Effect: Bronchospasm | TXA2 Effect: Thrombocytopenia |
| --- | --- | --- | --- |
| O=C1CC(CO)C(c2cccs2)=NN1 (centres unmarked) [drawing 68] | (+) | (+) | (+) |

What follows are compounds tested on thrombocyte aggregation induced by thrombin (assay: Inhibition of thrombocyte aggregation in vitro (Born), thrombin). Conditions: induced by 0.2-0.4 N.I.H. units/ml (thrombin).
Assay type: cell-based
Experimental: (§3) The values of tables 3 to 5 showing the inhibition of the thrombocytic aggregation were determined in vitro according to the Born method (J. Physiol. 162 67 P (1962)) using arachidonic acid, thrombin or adenosine diphosphate as aggregation agent.
Inhibition of thrombocyte aggregation in vitro
(according to BORN) induced by 0.2-0.4 N.I.H. units/ml

| pIC50 | Structure (SMILES) |
| --- | --- |
| 5.60 | COc1ccc(C2=NNC(=O)CC2CO)cc1 (centres unmarked) [drawing 98] |
| 5.22 | O=C1CC(CO)C(c2ccc(Cl)cc2)=NN1 (centres unmarked) [drawing 99] |
| 6.15 | CC(=O)Nc1ccc(C2=NNC(=O)CC2CO)cc1 (centres unmarked) [drawing 100] |
| 5.70 | COc1ccc(C2=NNC(=O)CC2CO)cc1OC (centres unmarked) [drawing 101] |
| < 4.00 | COc1ccc(C2=NNC(=O)CC2COC(=O)COc2ccc(Cl)cc2)cc1OC (centres unmarked) [drawing 102] |

Each compound was assayed on thrombocyte aggregation induced by ADP (assay: Inhibition of thrombocyte aggregation in vitro (Born), ADP). Conditions: induced by 10 μM ADP.
Assay type: cell-based
Experimental: as §3
Inhibition of thrombocyte aggregation in vitro (according to
BORN) induced by 10 μM ADP

| pIC50 | Structure (SMILES) |
| --- | --- |
| < 4.00 | O=C1CC(CO)C(c2ccccc2)=NN1 (centres unmarked) [drawing 105] |
| 3.82 | Cc1ccc(C2=NNC(=O)CC2CO)cc1 (centres unmarked) [drawing 106] |
| 4.30 | COc1ccc(C2=NNC(=O)CC2CO)cc1 (centres unmarked) [drawing 107] |
| 4.15 | O=C1CC(CO)C(c2ccc(Cl)cc2)=NN1 (centres unmarked) [drawing 108] |
| 5.00 | CC(=O)Nc1ccc(C2=NNC(=O)CC2CO)cc1 (centres unmarked) [drawing 109] |
| 5.05 | COc1ccc(C2=NNC(=O)CC2CO)cc1OC (centres unmarked) [drawing 110] |
| 4.70 | Cc1nnc(COc2ccc(C3=NNC(=O)CC3CO)cc2)o1 (centres unmarked) [drawing 111] |
| 3.82 | O=C1CC(CO)C(c2ccc(OCCn3ccnc3)cc2)=NN1 (centres unmarked) [drawing 112] |
| 4.70 | O=C1CC(CO)C(c2ccc(N3CCCC3=O)cc2)=NN1 (centres unmarked) [drawing 113] |
| 4.44 | O=C1CC(CO)C(c2ccc(OCc3cccnc3)cc2)=NN1 (centres unmarked) [drawing 114] |
| 4.70 | N#Cc1ccc(C2=NNC(=O)CC2CO)cc1 (centres unmarked) [drawing 115] |

Each compound was assayed on thrombocyte aggregation induced by arachidonic acid (assay: Inhibition of thrombocyte aggregation in vitro (Born), arachidonic acid). Conditions: induced by 0.36 mM of arachidonic acid.
Assay type: cell-based
Experimental: as §3
Inhibition of thrombocyte aggregation in vitro (according to BORN)
induced by 0.36 mM of arachidonic acid

| pIC50 | Structure (SMILES) |
| --- | --- |
| 5.40 | COc1ccc(C2=NNC(=O)CC2COC(=O)COc2ccc(Cl)cc2)cc1OC (centres unmarked) [drawing 83] |
| 6.35 | O=C1CC(CO)C(c2ccc(OCc3cccnc3)cc2)=NN1 (centres unmarked) [drawing 85] |
| 4.30 | O=C1CC(CO)C(c2cccs2)=NN1 (centres unmarked) [drawing 86] |
| 6.40 | O=C1CC(CO)C(c2ccc(N3CCCC3=O)cc2)=NN1 (centres unmarked) [drawing 87] |
| 6.22 | COc1ccc(C2=NNC(=O)CC2CO)cc1OC (centres unmarked) [drawing 88] |
| 6.05 | O=C1CC(CO)C(c2ccc(Cl)cc2)=NN1 (centres unmarked) [drawing 90] |
| 6.70 | CC(=O)Nc1ccc(C2=NNC(=O)CC2CO)cc1 (centres unmarked) [drawing 91] |
| 6.26 | O=C1CC(CO)C(c2c[nH]c3ccccc23)=NN1 (centres unmarked) [drawing 93] |
| 4.52 | COc1ccc(C2=NNC(=O)CC2COC(=O)c2cccnc2)cc1OC (centres unmarked) [drawing 94] |

The next lines start with the compound.

| Structure (SMILES) | pIC50 |
| --- | --- |
| Cc1cc(COc2ccc(C3=NN(C)C(=O)CC3CO)cc2)[nH]c(=O)c1 (centres unmarked) | 4.82 |
| COc1ccc(C2=NN(C)C(=O)CC2CO)cc1OC (centres unmarked) | 4.40 |
| COc1cc(C2=NNC(=O)CC2CO)cc(OC)c1OC (centres unmarked) | 5.22 |
| O=C1CC(CO)C(c2ccccc2)=NN1 (centres unmarked) [drawing 75] | 5.30 |
| O=C1CC(CO)C(c2cccc([N+](=O)[O-])c2)=NN1 (centres unmarked) [drawing 78] | 5.82 |
| Cc1nnc(COc2ccc(C3=NNC(=O)CC3CO)cc2)o1 (centres unmarked) [drawing 79] | 6.00 |
| O=C1CC(CO)C(c2ccc(OCCn3ccnc3)cc2)=NN1 (centres unmarked) [drawing 80] | 5.70 |
| N#Cc1ccc(C2=NNC(=O)CC2CO)cc1 (centres unmarked) [drawing 81] | 6.52 |
| CC(=O)Nc1ccc(C2=NN(C)C(=O)CC2CO)cc1 (centres unmarked) [drawing 82] | < 4.00 |
